In ChEMBL document CHEMBL1909046, “DrugMatrix in vitro pharmacology data”:
pIC50, pKi: −log10 of the molar value.

What was measured:
[1] = target: Sodium-dependent noradrenaline transporter (Homo sapiens, UniProt P23975); experiment: DRUGMATRIX: Norepinephrine Transporter radioligand binding (ligand: [125I] RTI-55); type: cell membranes, MDCK, Membrane; conditions: Not Active = under 50% inhibition at 10 µM; for IC50: mdck
[2] = target: Aldo-keto reductase family 1 member B1 (Rattus norvegicus, UniProt P07943); type: tissue-based, Lens of camera-type eye;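 note: inhibition of aldose reductase enzyme activity, measured with DL-glyceraldehyde as the substrate; in other assays of this panel Not Active means under 50% inhibition at 10 µM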
[3] = DRUGMATRIX: ATPase, Na+/K+ enzyme inhibition (substrate: ATP); type: tissue-based, Sus scrofa, Heart; conditions: Not Active = under 50% inhibition at 10 µM
[4] = target: T1, Nitric oxide synthase, inducible (Mus musculus, UniProt P29477); parameters: species or system Escherichia coli;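 note: inhibition of iNOS enzyme activity measured with L-arginine as substrate; in other assays of this panel Not Active means under 50% inhibition at 10 µM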
T1 sequence (P29477 whole entry): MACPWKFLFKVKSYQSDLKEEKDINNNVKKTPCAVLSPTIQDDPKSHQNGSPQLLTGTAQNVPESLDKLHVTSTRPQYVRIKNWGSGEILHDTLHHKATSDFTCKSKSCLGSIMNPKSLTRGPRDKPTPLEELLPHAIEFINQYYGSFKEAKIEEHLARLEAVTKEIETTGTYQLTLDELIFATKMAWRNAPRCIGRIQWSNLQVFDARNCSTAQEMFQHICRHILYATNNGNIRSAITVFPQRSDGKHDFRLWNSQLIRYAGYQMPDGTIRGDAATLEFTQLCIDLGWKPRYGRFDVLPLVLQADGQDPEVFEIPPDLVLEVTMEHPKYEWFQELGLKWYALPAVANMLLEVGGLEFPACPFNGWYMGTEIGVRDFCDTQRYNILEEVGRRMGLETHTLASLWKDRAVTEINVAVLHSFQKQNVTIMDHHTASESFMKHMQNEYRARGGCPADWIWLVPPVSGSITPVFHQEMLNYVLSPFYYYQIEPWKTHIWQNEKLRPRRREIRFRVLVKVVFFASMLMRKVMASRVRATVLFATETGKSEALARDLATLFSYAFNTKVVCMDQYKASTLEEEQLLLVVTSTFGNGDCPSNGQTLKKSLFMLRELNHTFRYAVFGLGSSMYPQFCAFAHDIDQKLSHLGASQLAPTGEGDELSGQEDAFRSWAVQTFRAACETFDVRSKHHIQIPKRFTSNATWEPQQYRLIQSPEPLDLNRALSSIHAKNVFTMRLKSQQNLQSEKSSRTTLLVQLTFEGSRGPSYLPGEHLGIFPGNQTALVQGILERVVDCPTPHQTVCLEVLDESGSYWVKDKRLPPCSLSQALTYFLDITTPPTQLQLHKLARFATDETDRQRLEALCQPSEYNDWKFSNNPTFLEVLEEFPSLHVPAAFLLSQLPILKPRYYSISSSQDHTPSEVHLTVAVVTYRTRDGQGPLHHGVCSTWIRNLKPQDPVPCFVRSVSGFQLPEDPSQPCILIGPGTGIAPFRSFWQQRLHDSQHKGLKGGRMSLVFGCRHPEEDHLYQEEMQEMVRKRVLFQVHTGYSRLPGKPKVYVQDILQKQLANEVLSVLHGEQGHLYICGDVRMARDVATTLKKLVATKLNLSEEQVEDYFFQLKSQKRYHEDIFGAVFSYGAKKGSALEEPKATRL

Adenosine receptor A3 = target: T2, Adenosine receptor A3 (Homo sapiens, UniProt P0DMS8); type: cell membranes, CHO-K1, Membrane; conditions: for IC50: cho-k1;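 for all read-outs here: radioligand binding assay with AB-MECA serving as the labeled ligand; in other assays of this panel Not Active means under 50% inhibition at 10 µM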
T2 sequence (P0DMS8 whole entry): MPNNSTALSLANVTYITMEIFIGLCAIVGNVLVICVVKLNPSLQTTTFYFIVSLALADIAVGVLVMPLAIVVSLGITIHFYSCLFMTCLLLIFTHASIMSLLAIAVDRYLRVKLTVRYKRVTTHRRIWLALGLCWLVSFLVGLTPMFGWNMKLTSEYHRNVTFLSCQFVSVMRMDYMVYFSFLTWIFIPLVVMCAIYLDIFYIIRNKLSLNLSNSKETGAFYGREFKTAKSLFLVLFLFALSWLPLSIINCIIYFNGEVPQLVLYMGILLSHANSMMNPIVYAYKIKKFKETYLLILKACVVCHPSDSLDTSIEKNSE

Chain of Sodium-dependent noradrenaline transporter (P23975 whole entry): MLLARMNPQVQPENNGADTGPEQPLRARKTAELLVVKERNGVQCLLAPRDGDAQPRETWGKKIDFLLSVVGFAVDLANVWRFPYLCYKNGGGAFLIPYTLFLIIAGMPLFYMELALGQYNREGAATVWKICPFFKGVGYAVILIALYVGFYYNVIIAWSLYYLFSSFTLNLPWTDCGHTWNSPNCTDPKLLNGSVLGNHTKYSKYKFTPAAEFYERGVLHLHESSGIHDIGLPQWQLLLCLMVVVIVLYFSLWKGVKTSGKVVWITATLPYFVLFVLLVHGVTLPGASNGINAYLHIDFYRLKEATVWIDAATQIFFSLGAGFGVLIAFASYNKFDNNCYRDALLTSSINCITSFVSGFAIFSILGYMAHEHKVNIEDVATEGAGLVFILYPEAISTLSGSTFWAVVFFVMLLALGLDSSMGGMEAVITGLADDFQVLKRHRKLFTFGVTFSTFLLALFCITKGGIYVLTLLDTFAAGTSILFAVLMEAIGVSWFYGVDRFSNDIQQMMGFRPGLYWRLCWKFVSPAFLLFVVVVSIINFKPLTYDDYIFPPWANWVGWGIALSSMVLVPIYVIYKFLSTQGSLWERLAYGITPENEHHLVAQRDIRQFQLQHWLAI

Compound	IC50 [1]	IC50 [2]	IC50 [3]	Ki [3]	IC50 [4]	IC50 (Adenosine receptor A3)	pIC50 (Adenosine receptor A3; read-out: IC50)	pKi (Adenosine receptor A3; read-out: Ki)	pIC50 ([1]; read-out: IC50)	pKi ([1]; read-out: Ki)
Cc1cc2c(OCC(CNC(C)(C)C)OC(=O)c3ccccc3)cccc2[nH]1 (centres undefined) [BOPINDOLOL]	Not Active	Not Active	Not Active	Not Active	Not Active	Not Active				
COc1cc(N)c(Cl)cc1C(=O)NC1CCN(CCCOc2ccc(F)cc2)CC1OC (centres undefined) [CISAPRIDE]	Not Active	Not Active	Not Active	Not Active	Not Active	Not Active				
C[C@@H]1C[C@H]2[C@@H]3CCC4=CC(=O)C=C[C@]4(C)[C@@]3(F)[C@@H](O)C[C@]2(C)[C@@]1(O)C(=O)CO [DEXAMETHASONE]	Not Active	Not Active	Not Active	Not Active	Not Active	Not Active				
OC(CCCN1CCCCC1)(c1ccccc1)c1ccccc1 [DIPHENIDOL]	Not Active	Not Active	Not Active	Not Active	Not Active	Not Active				
COc1cc([C@@H]2c3cc4c(cc3[C@@H](O[C@@H]3O[C@@H]5CO[C@@H](C)O[C@H]5[C@H](O)[C@H]3O)[C@H]3COC(=O)[C@H]23)OCO4)cc(OC)c1O [ETOPOSIDE]	Not Active	Not Active	Not Active	Not Active	Not Active	Not Active				
COc1ccc2c3c1O[C@H]1C[C@@H](O)C=C[C@@]31CCN(C)C2 [GALANTAMINE]	Not Active	Not Active	Not Active	Not Active	Not Active	Not Active				
CC(C)=CCC/C(C)=C/CO [GERANIOL]	Not Active	Not Active	Not Active	Not Active	Not Active	Not Active				
CC(=O)[C@@]1(O)CC[C@H]2[C@@H]3CCC4=CC(=O)CC[C@]4(C)[C@H]3CC[C@@]21C [HYDROXYPROGESTERONE]	Not Active	Not Active	Not Active	Not Active	Not Active		5.33	5.57		
COC1=C(OC)C(=O)C(CCCCCCCCCCO)=C(C)C1=O [IDEBENONE]	Not Active	Not Active	Not Active	Not Active	Not Active	Not Active				
Cc1c(OCC(F)(F)F)ccnc1C[S+]([O-])c1nc2ccccc2[nH]1 (centres undefined) [LANSOPRAZOLE]	Not Active	Not Active	Not Active	Not Active	Not Active	Not Active				
CC(C)NCC(O)COc1cccc2[nH]ccc12 (centres undefined) [PINDOLOL]	Not Active	Not Active	Not Active	Not Active	Not Active	Not Active				
CCCNCC(O)COc1ccccc1C(=O)CCc1ccccc1 (centres undefined) [PROPAFENONE]		Not Active	Not Active	Not Active	Not Active	Not Active				
CC(C)c1cccc(C(C)C)c1O [PROPOFOL]		Not Active	Not Active	Not Active	Not Active	Not Active			5.03	5.03
